Tests used:
TCPTP = molecular target: T1, TCPTP (Homo sapiens, UniProt P17706); assay: T‐cell protein tyrosine phosphatase (TCPTP) activity assay (p‐NPP); format: biochemical; conditions: for TCPTP inhibition (in words): up to 100 μM; for IC50: ± S.D, assessed up to 100 μM, read-out: TCPTP IC50
T1 sequence (P17706 1-415): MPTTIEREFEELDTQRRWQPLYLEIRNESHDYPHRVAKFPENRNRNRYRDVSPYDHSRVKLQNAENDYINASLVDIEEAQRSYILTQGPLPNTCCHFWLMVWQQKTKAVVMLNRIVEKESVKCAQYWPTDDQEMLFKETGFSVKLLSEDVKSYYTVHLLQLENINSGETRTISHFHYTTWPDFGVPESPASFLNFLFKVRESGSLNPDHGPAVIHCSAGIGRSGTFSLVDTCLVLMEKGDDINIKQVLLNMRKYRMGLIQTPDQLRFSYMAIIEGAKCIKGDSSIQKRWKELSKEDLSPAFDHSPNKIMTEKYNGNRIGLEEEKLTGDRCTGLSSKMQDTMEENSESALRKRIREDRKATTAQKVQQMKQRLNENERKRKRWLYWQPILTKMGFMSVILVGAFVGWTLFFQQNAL
Experimental: The effectiveness and safety of protein tyrosine phosphatase (PTP) inhibitors depend on their specificity. PTP1B and TCPTP serve different functions: PTP1B is involved in metabolism and cancer, while TCPTP regulates immune function. Inhibiting TCPTP could impact the immune response, whereas inhibiting PTP1B may benefit metabolic diseases without these side effects.^[ [20] ^, [34] ^, [35] ^] […] These compounds were assessed up to 100 μM (Table 1).
TCPTP enzyme reported by Mendoza et al. was used for this assay. […] Aliquots of 0–10 µL (triplicate) of the newly synthesized compounds, positive control, and solvent were taken. These were incubated with 85 µL of enzyme solution (Tris, 50 mM, pH 6.8, TCPTP) and 5 µL of substrate (p‐NPP, 10 mM) for 15 min at 37 °C.

HepG2 cells = assay: Cell viability with crystal violet; format: cell-based; conditions: 1 and 25 µM, 24 h
Experimental: Subsequently, we evaluated the same compounds in a HepG2 insulin‐resistant model.
A 96‐well plate was seeded with 3,000 cells per well and incubated for 24 h. Afterward, the cells were treated with test compounds at various concentrations for 24 h. After incubation, the media was removed, and 100 µL of 1% glutaraldehyde was added for 15 min. Afterward, the liquid was removed, and 50 µL of 0.5% crystal violet (dissolved in 25% methanol) was added for 30 min. The crystal violet staining solution was removed, and the plate was thoroughly washed with tap water. The precipitate was dissolved in a 10% acetic acid solution and mixed for 15 min. The absorbance was then measured at 590 nm using a plate reader (xMark Microplate Spectrophotometer—Bio‐Rad).
Figure S59. Cell viability assessment by crystal violet staining. HepG2 cell viability was evaluated
after treatment with the respective compounds at concentrations of 1 and 25 µM for 24 hours. Bar
graphs represent mean ± SEM.

PTP1B = conditions: cited from earlier work
[1] = set-up: method as in PMID 37628991; conditions: cited from earlier work
[2] = tested on: streptozotocin‐induced diabetic rats; set-up: method as in PMID 37628991; conditions: cited from earlier work
hPTP1B1–400 = molecular target: T2, hPTP1B1–400 (Homo sapiens, UniProt P18031); assay: PTP1B activity assay, long form hPTP1B1–400 (p‐NPP); format: biochemical; set-up: hPTP1B1–400 (the long form with an intrinsically disordered C‐terminal regulatory domain); conditions: for IC50: ± S.D, p‐NPP substrate, 15 min at 37 °C, triplicate
T2 sequence (P18031 1-400): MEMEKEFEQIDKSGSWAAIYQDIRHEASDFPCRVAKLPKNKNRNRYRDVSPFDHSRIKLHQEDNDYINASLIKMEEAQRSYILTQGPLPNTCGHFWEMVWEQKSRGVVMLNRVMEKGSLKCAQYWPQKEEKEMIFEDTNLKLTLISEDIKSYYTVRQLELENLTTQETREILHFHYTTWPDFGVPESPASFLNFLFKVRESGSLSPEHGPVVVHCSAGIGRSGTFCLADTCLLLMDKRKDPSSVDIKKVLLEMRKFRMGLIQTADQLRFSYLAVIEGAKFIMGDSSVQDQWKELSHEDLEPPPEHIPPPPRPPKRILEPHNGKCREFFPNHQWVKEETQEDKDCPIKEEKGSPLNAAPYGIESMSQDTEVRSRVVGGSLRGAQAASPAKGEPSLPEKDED
Experimental: (§1) The inhibitory activity of PTP1B was assessed using two enzyme variants: hPTP1B1–285 (the short form with an N‐terminal catalytic domain) and hPTP1B1–400 (the long form with an intrinsically disordered C‐terminal regulatory domain). […] According to Coronel‐Tovar et al., the disordered region of the C‐terminal domain plays a crucial role in modulating PTP1B enzymatic activity.^[ [30] ^] […] Different concentrations of the compounds were evaluated to determine their IC50 values (Table 1 ).
(§2) Recombinant human protein tyrosine phosphatase 1B, consisting of 400 and 285 amino acid residues, was used.^[ [35] ^] […] Aliquots of 0–10 µL of the test compounds (triplicate) were taken and incubated for 15 min at 37 °C with 85 µL of Tris buffer solution (50 mM, pH 6.8) containing PTP1B enzyme and 5 µL of p‐nitrophenyl phosphate substrate (p‐NPP, 10 mM). Absorbance was then measured at a wavelength of 405 nm. The inhibitory activity was determined according to Equation (1). (1) % PTP1B=(A405b/A405c)×100 where % PTP1B: Is the percentage of inhibition. A 405c: Is the corrected absorbance of the blank (A 405initial–A 405final). A 405b: Is the corrected absorbance of the compounds (A 405control–A 405compound).

hPTP1B1–285 = molecular target: T3, hPTP1B1–285 (Homo sapiens, UniProt P18031); assay: PTP1B activity assay, short form hPTP1B1–285 (p‐NPP); format: biochemical; conditions: ± S.D; p‐NPP substrate, 15 min at 37 °C
T3 construct: hPTP1B1–285 (the short form with an N‐terminal catalytic domain)
T3 sequence (P18031 1-285): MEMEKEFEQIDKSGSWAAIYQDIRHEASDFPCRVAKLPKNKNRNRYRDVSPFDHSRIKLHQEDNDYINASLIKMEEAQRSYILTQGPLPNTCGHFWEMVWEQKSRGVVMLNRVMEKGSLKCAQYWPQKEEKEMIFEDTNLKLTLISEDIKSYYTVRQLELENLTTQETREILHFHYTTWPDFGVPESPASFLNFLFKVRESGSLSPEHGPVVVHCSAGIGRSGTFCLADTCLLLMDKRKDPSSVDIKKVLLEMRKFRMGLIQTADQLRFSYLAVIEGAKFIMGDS
Experimental: as §1
To do so, these terpenoids were tested against hPTP1B1–285.
as §2

[3] = streptozotocin‐induced diabetic rats

For `CC1(C(=O)O)CCC2(C)CCC3(C)C(=CC(=O)C4C5(C)Cc6c([nH]c7ccc(C(F)(F)F)cc67)C(C)(C)C5CCC43C)C2C1` (centres unmarked) [FC‐114], the “TCPTP inhibition (in words)” value (TCPTP) was “did not inhibit TCPTP”, the IC50 (TCPTP) was greater than 100 µM and the HepG2 cell viability (HepG2 cells) was “did not compromise HepG2 cell viability”. The HepG2 cell viability (HepG2 cells; listed as FC-114) was “No significant differences”, the “times better potency against PTP1B than 18β‐GA” value (PTP1B) was 25 times and the “type of PTP1B inhibition” value (PTP1B) was “noncompetitive inhibitor”. For the same compound, the “doses at which safe” value [1] was “below 2000 mg kg^−1”, the antidiabetic activity [2] was “showed antidiabetic activity” and the insulin levels ([2]; streptozotocin‐induced diabetic rats, compared with glibenclamide) was “increased insulin levels more than glibenclamide”. For the same compound, the HDL cholesterol [2, 3] was “without affecting HDL cholesterol”, the total cholesterol levels [2, 3] was “significantly reduced total cholesterol levels” and the IC50 (hPTP1B1–400) was 0.48 ± 0.006 µM.
In the case of `Cc1ccc(-n2ncc3c2C(C)(C)C2CCC4(C)C(C(=O)C=C5C6CC(C)(C(=O)O)CCC6(C)CCC54C)C2(C)C3)cc1` (centres unmarked) [FC‐122], the IC50 (hPTP1B1–285) is reported as 25.1 ± 0.85 µM, the “TCPTP inhibition (in words)” value (TCPTP) is reported as “did not inhibit TCPTP” and the IC50 (TCPTP) is reported as greater than 100 µM. The HepG2 cell viability (HepG2 cells) was “did not compromise HepG2 cell viability”, the HepG2 cell viability (HepG2 cells; listed as FC-122) was “No significant differences” and the “times better potency against PTP1B than 18β‐GA” value (PTP1B) was 14 times. The “type of PTP1B inhibition” value (PTP1B) was “uncompetitive inhibitor”, the “doses at which safe” value [1] was “below 2000 mg kg^−1” and the antidiabetic activity [2] was “showed antidiabetic activity”. For the same compound, the “fold more potent than the alpha epimer” value (hPTP1B1–400; beta epimer vs alpha epimer (FC‐114 vs 3c, FC‐122 vs 5c), hPTP1B1–400 IC50) was 1.3 fold and the IC50 (hPTP1B1–400) was 1.15 ± 0.04 µM.

— PMC12640663 (Chemmedchem, 2025)
